Converted amounts (≈) assume the structure as drawn.
Target: T1, SP_2141 (beta-Hexosaminidase) (Streptococcus pneumoniae, UniProt A0A0H2US73)
T1 construct: recombinant from PRSP F3983 genomic DNA, pET-28a (+) with N-terminal 6 × His tag
Test: SPR (Biacore 8K, CM5 chip, immobilized protein, steady-state affinity)
Assay type: binding

T1 sequence (A0A0H2US73 entry or part of it): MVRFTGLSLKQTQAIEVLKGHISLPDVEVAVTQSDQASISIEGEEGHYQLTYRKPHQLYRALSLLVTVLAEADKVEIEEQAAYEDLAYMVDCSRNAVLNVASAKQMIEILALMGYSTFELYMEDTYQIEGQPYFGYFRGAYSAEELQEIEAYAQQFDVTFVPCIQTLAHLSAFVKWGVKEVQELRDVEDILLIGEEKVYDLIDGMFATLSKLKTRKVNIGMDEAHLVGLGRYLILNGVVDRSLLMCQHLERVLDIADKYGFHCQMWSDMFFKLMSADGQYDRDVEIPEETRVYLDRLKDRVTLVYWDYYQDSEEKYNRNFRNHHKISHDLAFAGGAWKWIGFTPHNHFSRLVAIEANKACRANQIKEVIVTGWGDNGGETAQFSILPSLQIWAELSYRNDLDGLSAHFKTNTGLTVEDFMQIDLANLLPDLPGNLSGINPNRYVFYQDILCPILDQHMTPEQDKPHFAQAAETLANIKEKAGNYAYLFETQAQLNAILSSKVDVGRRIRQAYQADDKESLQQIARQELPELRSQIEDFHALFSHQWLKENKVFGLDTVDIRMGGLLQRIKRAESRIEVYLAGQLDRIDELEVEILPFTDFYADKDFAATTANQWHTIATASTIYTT

For `O=C1c2ccccc2-n2c1nc1ccccc1c2=O` [Tryptanthrin, Indolo(2,1-b)quinazoline-6,12-dione], which Kd is on record?
Its Kd is 6.43 µM.

Tested on: T2, Streptococcus pneumoniae PRSP F3983
T2 construct: F3983 (penicillin-resistant)
Test: microbe, parasite or virus in culture
Design: MIC test of isolated compounds on penicillin-resistant Streptococcus pneumoniae F3983
Excerpt: 2.4.2. MIC Tests for the Isolated 23 Chemical Compounds on the PRSP F3983 The following supporting information can be downloaded at: https://www.mdpi.com/article/10.3390/ph16010105/s1; Table S1: Proteome_data sheet; Table S2: UPLC-UV-ESI-Q-TOF/MS analysis of S. cusia leaves; Table S3: NMR of 23 isolated compounds and their MICs against PRSP [69, 70, 71, 72, 73, 74, 75, 76, 77, 78, 79, 80, 81, 82, 83, 84, 85, 86, 87, 88, 89, 90, 91]; Table S4: Reverse-docking_active-pockets; Table S5: Reverse-docking_results_Tryptanthrin; Table S6: LMW-Kinetics-affinity_Tryptanthrin; Table S7: Primers and sequences of bgaA, StrH, SP_2141 and SP_2146 of F3983; Table S8: A scheme of Preparation of Isolated Compounds from S. cusia leaves

With `O=C1Cc2ccccc2N1` [compound 4, 1,3-dihydro-2H-indol-2-one] as the molecule, how does the MIC read?
The MIC was 400 µg/mL (≈ 3000 µM).

How did the MIC turn out when `O=C(O)c1ccc(C(=O)O)[nH]1` [compound 5, 1H-pyrrole-2,5-diacarboxylic acid] was run?
Its MIC is 200 µg/mL (≈ 1290 µM).

`COc1cc(C(=O)O)ccc1O` [compound 10, 4-hydroxy-5-methoxy-benzoic acid] was tested. Which MIC did it give?
The MIC was greater than 800 µg/mL.

Which MIC does the source give for `NC(=O)c1cccnc1` [compound 21, Nicotinamide] here?
Its MIC is greater than 800 µg/mL.

For `COc1c(O)cc2oc(-c3ccc(O)cc3)cc(=O)c2c1O` [compound 15, hispidulin], which MIC is on record?
Its MIC is 200 µg/mL (≈ 666 µM).

For `O=C1Nc2ccccc2OC1O` (stereo not shown) [compound 16, 2-hydroxy-(2H)-1,4-benzoxazin-3(4H)-one], which MIC is on record?
Its MIC is greater than 800 µg/mL.

`CC(=O)C=CC1=C(C)CC(O)CC1(C)C` (single isomer, unassigned; (-)) [compound 9, (-)-3-hydroxy-β-ionone] was tested. Which MIC did it give?
Its MIC is greater than 800 µg/mL.

How did the MIC turn out when `O=Cc1c[nH]c2ccccc12` [compound 14, 1H-indole-3-carboxadehyde] was run?
Its MIC is greater than 800 µg/mL.

For `O=c1c2ccccc2nc2n1CCC2` [compound 20, deoxyvasicinone], which MIC is on record?
The MIC was greater than 800 µg/mL.

For `CC(=O)C=CC12OC1(C)CC(O)CC2(C)C` (stereo not drawn) [compound 11, 3β-hydroxy-5α,6α-epoxy-7-megastigmen-9-one], which MIC is on record?
Its MIC is 400 µg/mL (≈ 1780 µM).

For `CC(=O)c1ccc(O)cc1` [compound 19, p-hydroxyacetophenone], which MIC is on record?
Its MIC is 200 µg/mL (≈ 1470 µM).

Which MIC does the source give for `CCCCC(CC)COC(=O)c1ccccc1C(=O)OCC(CC)CCCC` (stereo not shown) [compound 6, bis(2-ethylhexyl) benzene-1,2-dicarboxylate] here?
The MIC was greater than 800 µg/mL.

Which MIC does the source give for `CCCCCCCC/C=C\CCCCCCCC(N)=O` [compound 23, 9(Z)-octadece-nameid] here?
Its MIC is greater than 800 µg/mL.

With `CC(C)COC(=O)c1ccccc1C(=O)OCC(C)C` [compound 7, phthalic acid isodibutyl ester] as the molecule, how does the MIC read?
The MIC was greater than 800 µg/mL.

Which MIC does the source give for `COC(=O)c1ccccc1NC(=O)c1c[nH]c2ccccc12` [compound 8, cephalandole B] here?
Its MIC is greater than 800 µg/mL.

With `CC1(C)C[C@H](O)C[C@@]2(C)OC(=O)C=C12` [compound 12, Calendin] as the molecule, how does the MIC read?
The MIC was greater than 800 µg/mL.

With `CC(=O)/C=C/[C@H]1C(C)=C[C@H](O)CC1(C)C` [compound 3, (3R,6R,7E)-3-hydroxy-4,7-megastigmadien-9-one] as the molecule, how does the MIC read?
The MIC was 400 µg/mL (≈ 1920 µM).

How did the MIC turn out when `CC(O)C(=O)Nc1ccccc1O` (stereo not shown) [compound 17, 2-hydroxy-N-(2-hydroxyphenyl)propionamide] was run?
The MIC was greater than 800 µg/mL.

For `O=c1c2ccccc2ncn1-c1ccccc1O` [compound 13, 3-(2'-hydroxyphenyl)-4(3H)-quinazolinone], which MIC is on record?
The MIC was 400 µg/mL (≈ 1680 µM).

Target: StrH (exo-beta-D-N-acetylglucosaminidase) (Streptococcus pneumoniae, UniProt P49610)
Sequence (P49610 626-1064): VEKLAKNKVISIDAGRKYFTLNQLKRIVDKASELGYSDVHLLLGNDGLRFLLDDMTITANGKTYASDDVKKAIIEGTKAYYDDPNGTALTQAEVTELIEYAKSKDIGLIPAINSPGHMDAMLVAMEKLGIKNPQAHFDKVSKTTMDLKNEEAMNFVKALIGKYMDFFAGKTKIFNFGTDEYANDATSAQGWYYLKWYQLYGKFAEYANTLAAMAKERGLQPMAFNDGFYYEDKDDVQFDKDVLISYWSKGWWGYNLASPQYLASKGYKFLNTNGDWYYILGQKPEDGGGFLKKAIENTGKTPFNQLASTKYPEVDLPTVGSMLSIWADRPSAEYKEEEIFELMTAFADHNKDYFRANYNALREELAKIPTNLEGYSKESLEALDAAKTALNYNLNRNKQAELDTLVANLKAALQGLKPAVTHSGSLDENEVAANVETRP
Test: SPR (Biacore 8K, CM5 chip, immobilized protein, steady-state affinity)
Assay type: binding

How did the Kd turn out when `O=C1c2ccccc2-n2c1nc1ccccc1c2=O` [Tryptanthrin, Indolo(2,1-b)quinazoline-6,12-dione] was run?
Its Kd is 7.16 µM.

Target: T3, SP_2146 (alpha-fucosidase) (Streptococcus pneumoniae, UniProt A0A0H2US78)
T3 construct: recombinant from PRSP F3983 genomic DNA, pET-28a (+) with N-terminal 6 × His tag
T3 sequence (A0A0H2US78 entry or part of it): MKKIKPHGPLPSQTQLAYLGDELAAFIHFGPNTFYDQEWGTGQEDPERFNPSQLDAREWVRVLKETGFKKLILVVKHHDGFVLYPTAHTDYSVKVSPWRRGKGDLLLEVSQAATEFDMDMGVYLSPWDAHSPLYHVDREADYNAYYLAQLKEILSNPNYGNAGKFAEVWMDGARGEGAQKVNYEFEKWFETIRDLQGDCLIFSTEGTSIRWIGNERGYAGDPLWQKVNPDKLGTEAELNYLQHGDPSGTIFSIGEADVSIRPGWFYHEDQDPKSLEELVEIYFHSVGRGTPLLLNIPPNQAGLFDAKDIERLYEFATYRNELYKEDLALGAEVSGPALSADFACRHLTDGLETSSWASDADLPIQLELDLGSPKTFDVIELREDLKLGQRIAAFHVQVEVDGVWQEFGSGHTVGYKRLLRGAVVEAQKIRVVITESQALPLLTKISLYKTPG
Test: as above
Assay type: binding

With `O=C1c2ccccc2-n2c1nc1ccccc1c2=O` [Tryptanthrin, Indolo(2,1-b)quinazoline-6,12-dione] as the molecule, how does the Kd read?
The Kd was 8.82 µM.

From publication PMC9863409, “Combining the In Silico and In Vitro Assays to Identify Strobilanthes cusia Kuntze Bioactives against Penicillin-Resistant Streptococcus pneumoniae” (Pharmaceuticals, 2023)
